Source: US20260315447A1, “COMBINATION THERAPY WITH A MTOR INHIBITOR AND A MULTI-TYROSINE KINASE INHIBITOR FOR TREATING SOFT TISSUE SARCOMA” (ADDi Bioscience, Inc., priority 2023, published 2026)
Entries after “also recorded” stand apart in the source; their conditions may differ.

Legend:
mTORC2 = conditions: cited from earlier work
mTORCI = conditions: cited from earlier work
[1] = system: Human serum albumin (HSA); conditions: cited from earlier work
human plasma proteins = conditions: cited from earlier work
[2] = Phase I study of oral pazopanib and intravenous nab-sirolimus: safety (adverse events, dose-limiting toxicity, recommended dose); format: in vivo, human; conditions: by mouth daily, in combination with nab-sirolimus 30 mg/m^2
Source text: This was a phase I study designed to determine the safety and feasibility of a combination of oral pazopanib hydrochloride and intravenous nab-sirolimus. To obtain preliminary information regarding efficacy, the study had limited enrollment to those patients with advanced/unresectable STS for whom single agent pazopanib was indicated as a therapy.
The primary endpoint of the study was the determination of a maximum-tolerated dose (MTD) and recommended Phase 2 dose of nab-sirolimus combined with pazopanib. Secondary endpoints included characterization of adverse events of the nab-sirolimus/pazopanib combination and descriptive characterization of clinical benefit of the nab-sirolimus/pazopanib combination (objective responses, progression-free survival duration, and clinical benefit rates at 3 and 6 months). Correlative endpoints were included to evaluate the correlation of clinical benefit with baseline mTOR pathway activation status, as assessed by immunohistochemistry for phosphorylated-S6 ribosomal protein, correlation of clinical benefit with baseline tumoral expression of Serum Protein Acidic and Rich in Cysteine (SPARC)/Osteonectin, as assessed by immunohistochemistry, and pharmacokinetics of nab-sirolimus in combination with pazopanib.
If no DLT occurred after two doses, escalation to the next dose level was permitted. […]

soft-tissue sarcoma = conditions: single agent pazopanib, soft-tissue sarcoma patients; cited from earlier work

## COc1cccc2cc(-c3nc([C@H]4CC[C@H](C(=O)O)CC4)n4ncnc(N)c34)[nH]c12 [OSI-027]
mTORC2
  IC50: 0.065 µM
mTORCI
  IC50: 0.022 µM

## CO[C@H]1C[C@@H]2CC[C@@H](C)[C@@](O)(O2)C(=O)C(=O)N2CCCC[C@H]2C(=O)O[C@H]([C@H](C)C[C@@H]2CC[C@@H](O)[C@H](OC)C2)CC(=O)[C@H](C)/C=C(\C)[C@@H](O)[C@@H](OC)C(=O)[C@H](C)C[C@H](C)/C=C/C=C/C=C/1C [Rapamycin, rapamycin]
[1]
  binding to HSA: bind HSA

## CC(=O)O[C@@]12CO[C@@H]1C[C@H](O)[C@@]1(C)C(=O)[C@H](O)C3=C(C)[C@@H](OC(=O)[C@H](O)[C@@H](NC(=O)OC(C)(C)C)c4ccccc4)C[C@@](O)([C@@H](OC(=O)c4ccccc4)[C@H]21)C3(C)C [docetaxel]
Human plasma proteins
  binding to human plasma proteins: bind to human plasma proteins

## Cc1ccc(Nc2nccc(N(C)c3ccc4c(C)n(C)nc4c3)n2)cc1S(N)(=O)=O [pazopanib]
[2]
  Recommended Phase 2 dose of pazopanib: 400 mg
soft-tissue sarcoma
  overall survival compared to placebo control: did not have a meaningful improvement in overall survival rate; also recorded: not found to provide a significant difference in overall survival
  response rate: ~6%

## CC(C)c1cccc(C(C)C)c1O [propofol]
[1]
  binding to HSA: bind HSA
